Reference: ChEMBL document CHEMBL1201862, “PubChem BioAssay data set” (2004)
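Briefly, cells in 96-well plates were exposed to five compound concentrations for 48 h, and endpoints were estimated by linear interpolation. GI50 marks 50% less growth.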 Activity calls are given as the source filed them. Rule as the data show it: active = GI50 up to about 1.1 µM and inactive = higher.

Assays:
Assay in all cases: NCI anticancer screen, dose series, 48 h
786-0 = test system: 786-0
A498 = test system: A498
A549 = test system: A549
ACHN = test system: ACHN
BT-549 = test system: BT-549
CAKI-1 = test system: CAKI-1
CCRF-CEM = test system: CCRF-CEM
COLO 205 = test system: COLO 205
DLD-1 = test system: DLD-1
DMS-114 = test system: DMS-114
DU-145 = test system: DU-145
EKVX = test system: EKVX
HCC 2998 = test system: HCC 2998
HCT-116 = test system: HCT-116
HCT-15 = test system: HCT-15
HL-60 = test system: HL-60
HOP-62 = test system: HOP-62
HOP-92 = test system: HOP-92
HT-29 = test system: HT-29
Hs-578T = test system: Hs-578T
IGROV-1 = test system: IGROV-1
K562 = test system: K562
KM-20L2 = test system: KM-20L2
KM12 = test system: KM12
LOX IMVI = test system: LOX IMVI
LXFL 529 = test system: LXFL 529
M14 = test system: M14
M19-MEL = test system: M19-MEL
MCF7 = test system: MCF7
MDA-MB-231 = test system: MDA-MB-231
MDA-MB-435 = test system: MDA-MB-435
MDA-N = test system: MDA-N
MOLT-4 = test system: MOLT-4
Malme-3M = test system: Malme-3M
NCI-H226 = test system: NCI-H226
NCI-H23 = test system: NCI-H23
NCI-H460 = test system: NCI-H460
NCI-H522 = test system: NCI-H522
NCI/ADR-RES = test system: NCI/ADR-RES
OVCAR-3 = test system: OVCAR-3
OVCAR-4 = test system: OVCAR-4
OVCAR-5 = test system: OVCAR-5
OVCAR-8 = test system: OVCAR-8
PC-3 = test system: PC-3
RPMI-8226 = test system: RPMI-8226
RXF 393 = test system: RXF 393
SF-268 = test system: SF-268
SF-295 = test system: SF-295
SF-539 = test system: SF-539
SK-MEL-28 = test system: SK-MEL-28
SK-MEL-2 = test system: SK-MEL-2
SK-MEL-5 = test system: SK-MEL-5
SK-OV-3 = test system: SK-OV-3
SN12C = test system: SN12C
SNB-19 = test system: SNB-19
SNB-75 = test system: SNB-75
SNB-78 = test system: SNB-78
SR = test system: SR
SW-620 = test system: SW-620
T47D = test system: T47D
TK-10 = test system: TK-10
U-251 = test system: U-251
UACC-257 = test system: UACC-257
UACC-62 = test system: UACC-62
UO-31 = test system: UO-31
DMS-273 = test system: DMS-273

Measured: GI50

Cc1nc(-n2nc(-c3ccccc3)cc2-c2ccccc2)sc1C(/C=C\c1ccc([N+](=O)[O-])cc1)=N/NC(=S)NN
inactive: 786-0 22.9 µM | A498 > 100 µM | A549 18.7 µM | ACHN 40.3 µM | BT-549 21.3 µM | CAKI-1 > 42.5 µM | CCRF-CEM > 50.8 µM | COLO 205 > 31.6 µM | DLD-1 19.2 µM | DMS-114 37.4 µM | DU-145 31 µM | EKVX > 56.6 µM | HCC 2998 13.8 µM | HCT-116 19.5 µM | HL-60 > 52.5 µM | HOP-62 22 µM | HOP-92 > 100 µM | HT-29 30.6 µM | Hs-578T 25 µM | IGROV-1 40.7 µM | K562 > 56.6 µM | KM-20L2 50.6 µM | KM12 43.7 µM | LOX IMVI 26.1 µM | LXFL 529 47.3 µM | M14 34.4 µM | M19-MEL > 100 µM | MCF7 15.4 µM | MDA-MB-231 > 10 µM | MDA-MB-435 > 100 µM | MDA-N 22 µM | MOLT-4 > 52.5 µM | Malme-3M > 58.6 µM | NCI-H226 > 46.8 µM | NCI-H23 22.1 µM | NCI-H460 33.5 µM | NCI-H522 18.2 µM | NCI/ADR-RES 26.9 µM | OVCAR-3 > 46.8 µM | OVCAR-4 26.2 µM | OVCAR-5 38.7 µM | OVCAR-8 16.7 µM | PC-3 28.2 µM | RPMI-8226 > 48.8 µM | RXF 393 37.4 µM | SF-268 26.4 µM | SF-295 13.8 µM | SF-539 24.2 µM | SK-MEL-28 45.2 µM | SK-MEL-2 44.1 µM | SK-MEL-5 27.7 µM | SK-OV-3 > 85.7 µM | SN12C 21.7 µM | SNB-19 > 49.3 µM | SNB-75 74.3 µM | SNB-78 70 µM | SW-620 > 74 µM | T47D 24.9 µM | TK-10 37.2 µM | U-251 > 74.3 µM | UACC-257 > 42.1 µM | UACC-62 39.1 µM | UO-31 > 43.9 µM
active: SR 0.0948 µM
22.8 µM: HCT-15

CCN(CC)CC[n+]1ccc2c(C)c3[nH]c4ccccc4c3c(C)c2c1
active: CAKI-1 1.11 µM | CCRF-CEM 0.219 µM | DMS-273 0.315 µM | EKVX 0.982 µM | HCC 2998 0.319 µM | HL-60 0.31 µM | HOP-62 0.953 µM | HT-29 0.518 µM | K562 0.182 µM | KM12 0.385 µM | LOX IMVI 0.399 µM | MCF7 0.678 µM | MOLT-4 0.182 µM | Malme-3M 0.583 µM | NCI-H23 0.292 µM | NCI-H460 0.451 µM | NCI-H522 0.211 µM | OVCAR-3 0.213 µM | RPMI-8226 0.644 µM | SF-268 0.222 µM | SF-295 0.701 µM | SF-539 0.413 µM | SK-MEL-28 0.352 µM | SK-MEL-2 0.465 µM | SK-MEL-5 0.337 µM | SN12C 0.222 µM | SNB-19 0.17 µM | SNB-75 0.251 µM | SW-620 0.445 µM | U-251 0.173 µM | UACC-257 0.565 µM
inactive: A498 5.19 µM | DLD-1 1.67 µM | OVCAR-5 1.14 µM | RXF 393 2.09 µM
16.3 µM: HCT-15
